Test results taken from patent US11498903B2 (BRISTOL-MYERS SQUIBB COMPANY, priority 2017, dated 2022).
Where two headings read alike, the source gives them in different places.

Biological target: T1, human APJ receptor (Homo sapiens, UniProt P35414)
T1 construct: expressed in transfected cells
T1 sequence (P35414 1-380): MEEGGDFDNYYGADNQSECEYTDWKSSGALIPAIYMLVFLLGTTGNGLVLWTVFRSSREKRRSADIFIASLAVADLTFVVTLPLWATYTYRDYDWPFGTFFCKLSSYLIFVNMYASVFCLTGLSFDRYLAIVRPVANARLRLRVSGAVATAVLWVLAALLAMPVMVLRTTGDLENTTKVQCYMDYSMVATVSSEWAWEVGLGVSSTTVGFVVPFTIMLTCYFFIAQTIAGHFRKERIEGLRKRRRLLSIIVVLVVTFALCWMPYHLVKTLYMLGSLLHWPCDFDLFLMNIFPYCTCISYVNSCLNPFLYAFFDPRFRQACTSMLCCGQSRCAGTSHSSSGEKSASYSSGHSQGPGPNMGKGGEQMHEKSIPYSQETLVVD
Experiment: Intracellular cAMP accumulation assay (APJ hcAMP, HTRF)
Assay type: cell-based
Details: HEK293 cells stably expressing human APJ receptor
In short: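 Inhibition of 2 μM forskolin-driven cAMP ([…] present) measured by HTRF in 5,000 HEK293 cells/well stably expressing human APJ, 30 min, room temperature. EC50 came from a variable-slope sigmoidal fit; Ymax was relative to (Pyr1)apelin-13 set at 100%.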

[1] = Table 1, inhibition of forskolin-mediated cAMP production, read-out: APJ hcAMP EC50
[2] = Table 2, read-out: APJ cAMP Human EC50

Row | EC50 [1] [nM] | EC50 [2] [nM] | SMILES
1 | < 10 | < 10 | CCC[C@@H](NC(=O)c1ccc(-c2cc(Cl)ccc2-c2nc3ccccc3[nH]2)c(C(=O)O)c1)c1ccccc1 [Example 2, (R)-2′-(1H-Benzo[d]imidazol-2-yl)-5′-chloro-4-((1-phenylbutyl)carbamoyl)-[1,1′-biphenyl]-2-carboxylic acid]
2 | < 10 | < 10 | CCC[C@@H](NC(=O)c1ccc(-c2cc(Cl)ccc2-c2nc3cc(O)ccc3[nH]2)c(C(=O)O)c1)c1ccccc1 [Example 3, (R)-5′-Chloro-2′-(5-hydroxy-1H-benzo[d]imidazol-2-yl)-4-((1-phenylbutyl)carbamoyl)-[1,1′-biphenyl]-2-carboxylic acid]
3 | < 10 | < 10 | CCC[C@@H](NC(=O)c1ccc(-c2cc(Cl)ccc2-c2ncc(-c3ccccc3)[nH]2)c(C(=O)O)c1)c1ccccc1 [Example 4, (R)-5′-Chloro-2′-(4-phenyl-1H-imidazol-2-yl)-4-((1-phenylbutyl)carbamoyl)-[1,1′-biphenyl]-2-carboxylic acid]
4 | 10 to 100 | 10 to 100 | O=C(N[C@H](CN1CCOCC1)c1ccccc1)c1ccc(-c2cc(Cl)ccc2-c2nc3ccccc3[nH]2)c(C(=O)O)c1 [Example 5, (S)-2′-(1H-benzo[d]imidazol-2-yl)-5′-chloro-4-((2-morpholino-1-phenylethyl)carbamoyl)-[1,1′-biphenyl]-2-carboxylic acid]
5 | 101 to 500 | 101 to 500 | CCC[C@@H](NC(=O)c1ccc(-c2cc(Cl)ccc2-c2nc3ccccc3[nH]2)c(C(=O)NC#N)c1)c1ccccc1 [Example 6, (R)-2′-(1H-benzo[d]imidazol-2-yl)-5′-chloro-N2-cyano-N4-(1-phenylbutyl)-[1,1′-biphenyl]-2,4-dicarboxamide]
6 | 10 to 100 | 10 to 100 | CCC[C@@H](NC(=O)c1ccc(-c2cc(Cl)ccc2-c2nc3ccccc3[nH]2)c(CO)c1)c1ccccc1 [Example 7, (R)-2′-(1H-benzo[d]imidazol-2-yl)-5′-chloro-2-(hydroxymethyl)-N-(1-phenylbutyl)-[1,1′-biphenyl]-4-carboxamide]
7 | 10 to 100 | 10 to 100 | CCC[C@@H](NC(=O)c1ccc(-c2cc(Cl)ccc2-c2nc3cc(OC)ccc3[nH]2)c(-c2nc(=O)o[nH]2)c1)c1ccccc1 [Example 8, (R)-5′-chloro-2′-(5-methoxy-1H-benzo[d]imidazol-2-yl)-2-(5-oxo-2,5-dihydro-1,2,4-oxadiazol-3-yl)-N-(1-phenylbutyl)-[1,1′-biphenyl]-4-carboxamide]
8 | 10 to 100 | 10 to 100 | CCC[C@@H](NC(=O)c1ccc(-c2cc(Cl)ccc2-c2nc3ccccc3[nH]2)c(-c2n[nH]c(=O)o2)c1)c1ccccc1 [Example 9]
9 | 101 to 500 | 101 to 500 | CCC[C@@H](NC(=O)c1ccc(-c2cc(Cl)ccc2-c2nc3cc(OC)ccc3[nH]2)c(-c2nc(=S)o[nH]2)c1)c1ccccc1 [Example 10, (R)-5′-chloro-2′-(5-methoxy-1H-benzo[d]imidazol-2-yl)-N-(1-phenylbutyl)-2-(5-thioxo-2,5-dihydro-1,2,4-oxadiazol-3-yl)-[1,1′-biphenyl]-4-carboxamide]
10 | < 10 | < 10 | CCC[C@@H](NC(=O)c1cc(C(=O)O)c(-c2cc(Cl)ccc2-c2nc3ccccc3[nH]2)cc1C)c1ccccc1 [Example 11, (R)-2′-(1H-benzo[d]imidazol-2-yl)-5′-chloro-5-methyl-4-((1-phenylbutyl)carbamoyl)-[1,1′-biphenyl]-2-carboxylic acid]
11 | < 10 | < 10 | COC[C@@H](NC(=O)c1ccc(-c2cc(Cl)ccc2-c2nc3cc(OC)ccc3[nH]2)c(C(=O)O)c1)c1ccccc1 [Example 12, 5′-chloro-4-{[(1S)-2-methoxy-1-phenylethyl]carbamoyl}-2′-(5-methoxy-1H-1,3-benzodiazol-2-yl)-[1,1′ biphenyl]-2-carboxylic acid]
12 | < 10 | < 10 | CCC[C@@H](NC(=O)c1ccc(-c2cc(Cl)ccc2-c2nc3cc(Br)ccc3[nH]2)c(C(=O)O)c1)c1ccccc1 [Example 13, 2′-(5-bromo-1H-1,3-benzodiazol-2-yl)-5′-chloro-4-{[(1R)-1-phenylbutyl]carbamoyl}-[1,1′-biphenyl]-2-carboxylic acid]
13 | < 10 | < 10 | CCC[C@@H](NC(=O)c1ccc(-c2cc(Cl)ccc2-c2nc3cc(C)ccc3[nH]2)c(C(=O)O)c1)c1ccccc1 [Example 14, 5′-chloro-2′-(5-methyl-1H-1,3-benzodiazol-2-yl)-4-{[(1R)-1-phenylbutyl]carbamoyl}-[1,1′-biphenyl]-2-carboxylic acid]
14 | < 10 | < 10 | CCC[C@@H](NC(=O)c1ccc(-c2cc(Cl)ccc2-c2nc3cc(C4CC4)ccc3[nH]2)c(C(=O)O)c1)c1ccccc1 [Example 15, 5′-chloro-2′-(5-cyclopropyl-1H-1,3-benzodiazol-2-yl)-4-{[(1R)-1-phenylbutyl]carbamoyl}-[1,1′-biphenyl]-2-carboxylic acid]
15 | < 10 | < 10 | CCC[C@@H](NC(=O)c1ccc(-c2cc(Cl)ccc2-c2nc3cc(CC(F)(F)F)ccc3[nH]2)c(C(=O)O)c1)c1ccccc1 [Example 16, 5′-chloro-4-{[(1R)-1-phenylbutyl]carbamoyl}-2′-[5-(2,2,2-trifluoroethyl)-1H-1,3-benzodiazol-2-yl]-[1,1′-biphenyl]-2-carboxylic acid]
16 | < 10 | < 10 | CCC[C@@H](NC(=O)c1ccc(-c2cc(Cl)ccc2-c2nc3c(F)cccc3[nH]2)c(C(=O)O)c1)c1ccccc1 [Example 17, 5′-chloro-2′-(4-fluoro-1H-1,3-benzodiazol-2-yl)-4-{[(1R)-1-phenylbutyl]carbamoyl}-[1,1′-biphenyl]-2-carboxylic acid]
17 | < 10 | < 10 | CCC[C@@H](NC(=O)c1ccc(-c2cc(Cl)ccc2-c2nc3cc(C(F)(F)F)ccc3[nH]2)c(C(=O)O)c1)c1ccccc1 [Example 18, 5′-chloro-4-{[(1R)-1-phenylbutyl]carbamoyl}-2′-[5-(trifluoromethyl)-1H-1,3-benzodiazol-2-yl]-[1,1′-biphenyl]-2-carboxylic acid]
18 | < 10 | < 10 | CCC[C@@H](NC(=O)c1ccc(-c2cc(Cl)ccc2-c2nc3cc(C(C)(C)C)ccc3[nH]2)c(C(=O)O)c1)c1ccccc1 [Example 19, 2′-(5-tert-butyl-1H-1,3-benzodiazol-2-yl)-5′-chloro-4-{[(1R)-1-phenylbutyl]carbamoyl}-[1,1′-biphenyl]-2-carboxylic acid]
19 | < 10 | < 10 | CCC[C@@H](NC(=O)c1ccc(-c2cc(Cl)ccc2-c2nc3c(O)cccc3[nH]2)c(C(=O)O)c1)c1ccccc1 [Example 20, 5′-chloro-2′-(4-hydroxy-1H-1,3-benzodiazol-2-yl)-4-{[(1R)-1-phenylbutyl]carbamoyl}-[1,1′-biphenyl]-2-carboxylic acid]
20 | < 10 | < 10 | CCC[C@@H](NC(=O)c1ccc(-c2cc(Cl)ccc2-c2nc3cc(C(=O)OC)ccc3[nH]2)c(C(=O)O)c1)c1ccccc1 [Example 21, 5′-chloro-2′-[5-(methoxycarbonyl)-1H-1,3-benzodiazol-2-yl]-4-{[(1R)-1-phenylbutyl]carbamoyl}-[1,1′-biphenyl]-2-carboxylic acid]
21 | 10 to 100 | 10 to 100 | CCC[C@@H](NC(=O)c1ccc(-c2cc(Cl)ccc2-c2nc3cc(OC(F)(F)F)ccc3[nH]2)c(C(=O)O)c1)c1ccccc1 [Example 22, 5′-chloro-4-{[(1R)-1-phenylbutyl]carbamoyl}-2′-[5-(trifluoromethoxy)-1H-1,3-benzodiazol-2-yl]-[1,1′-biphenyl]-2-carboxylic acid]
22 | 10 to 100 | 10 to 100 | CCC[C@@H](NC(=O)c1ccc(-c2cc(Cl)ccc2-c2nc3ncc(C)cc3[nH]2)c(C(=O)O)c1)c1ccccc1 [Example 23, 5′-chloro-2′-{6-methyl-1H-imidazo[4,5-b]pyridin-2-yl}-4-{[(1R)-1-phenylbutyl]carbamoyl}-[1,1′-biphenyl]-2-carboxylic acid]
23 | 10 to 100 | 10 to 100 | CCC[C@@H](NC(=O)c1ccc(-c2cc(Cl)ccc2-c2nc3ccncc3[nH]2)c(C(=O)O)c1)c1ccccc1 [Example 24, 5′-chloro-2′-{1H-imidazo[4,5-c]pyridin-2-yl}-4-{[(1R)-1-phenylbutyl]carbamoyl}-[1,1′-biphenyl]-2-carboxylic acid]
24 | 10 to 100 | 10 to 100 | CCC[C@@H](NC(=O)c1ccc(-c2cc(Cl)ccc2-c2nc3c(ccc4ccccc43)[nH]2)c(C(=O)O)c1)c1ccccc1 [Example 25, 5′-chloro-2′-{3H-naphtho[1,2-d]imidazol-2-yl}-4-{[(1R)-1-phenylbutyl]carbamoyl}-[1,1′-biphenyl]-2-carboxylic acid]
25 | 10 to 100 | 10 to 100 | CCC[C@@H](NC(=O)c1ccc(-c2cc(Cl)ccc2-c2nc3cc4c(cc3[nH]2)OCO4)c(C(=O)O)c1)c1ccccc1 [Example 26, 5′-chloro-2′-{4,6-dioxa-10,12-diazatricyclo[7.3.0.0^3,^7]dodeca-1(9),2,7,10-tetraen-11-yl}-4-{[(1R)-1-phenylbutyl]carbamoyl}-[1,1′-biphenyl]-2-carboxylic acid]
